Drawing on patent US20250145628A1, “PYRAZOLOPYRIMIDINES, COMPOSITIONS COMPRISING THEM AND USES THEREOF” (Novo Nordisk A/S, priority 2022, published 2025), this text covers IC50 for 18 molecules.

Assay [1] has as its target T1, human CB1 receptor (Homo sapiens, UniProt P21554).
T1 construct: expressed in transfected cells; host or cells: HEK293
The assay can be described thus: bioSensAll GAPL-Gi2 BRET biosensor assay (antagonism of CP-55,940). To be noted: HEK293 cells transfected with hCB1 and GAPL-Gi2 biosensor, EC75 of CP-55,940 (0.1 nM), overnight incubation, read-out: CB1 wt Gi2 IC50. It counts as cell-based. On the procedure:
(§1) Using polyethylenimine (PEI) transfection agent, HEK293 cells were transfected in suspension with the human CB1 or CB1b receptor and one of the following bioSensAll® assays: GAPL-Gi2, or β-arrestin plasma membrane (PM) translocation biosensor (+GRK2). Cells were directly seeded in 96-well plates immediately following transfection.
(§2) Cells were incubated with coelenterazine (luciferase substrate) and different test compounds prior to the measurement of BRET signals.
i) GAPL sensors are used to monitor the activation of heterotrimeric G proteins at the plasma membrane upon receptor stimulation. Specifically, these multimolecular BRET sensors detect the plasma membrane recruitment of proteins that interact with active Ga subunits in a G protein family-selective manner. G protein activation following receptor stimulation generally leads to an increase in the BRET signal.
(§3) HEK293 cells were maintained in Dulbecco's Modified Eagle Medium (DMEM) (Wisent; cat #319-030-CL: without sodium pyruvate, with 4.5 g/L glucose, without L-glutamine) supplemented with 1% penicillin-streptomycin (Wisent; cat #450-201-EL) and 2 or 10% fetal bovine serum (Wisent cat #090150).
(§4) HEK293 cells were co-transfected with hCB1 or hCB1b and one of the above-listed bioSensAll® assays. For each transfection condition: • the total amount of transfected DNA was kept constant at 1 μg per mL of cell culture to be transfected; whenever necessary, salmon sperm DNA (Invitrogen, cat #15632011) was used as ‘carrier’ DNA to supplement plasmid DNA (i.e., biosensor and receptor); • the PEI (polyethylenimine 25 kDa linear, PolyScience, cat #23966) to DNA ratio (ug:ug) was fixed at 3:1.
(§5) Transfections were carried out as follows: • DNA and PEI were first diluted separately in 150 mM NaCl. The volume of the diluent in each tube corresponds to 5% of the cell culture volume to be transfected. • Once DNA and PEI were diluted, the PEI-containing solution was added to the DNA solution and the DNA/PEI mixture immediately vortexed for 5 seconds. • The DNA/PEI mixture was incubated for at least 20 minutes at room temperature to allow for the formation of DNA/PEI complexes. • During the incubation, HEK293 cells were detached, counted and re-suspended in culture medium (composition specified above). • At the end of the incubation period, the DNA/PEI mixture was added to the cells. • Cells were finally distributed in 96-well plates (White Opaque 96-well/Microplates, Greiner, cat #655083 or CulturPlate-96, White Opaque 96-well Microplate, PerkinElmer, cat #6005688) at a density of 30 000 cells per well.
(§6) At ˜48 hours post-transfection: • Using 450-Select TS Biotek plate washer, culture medium was aspirated and replaced with 100 μl of Hank's Balanced Salt Solution buffer (HBSS) (Wisent, cat #319-067CL: without red phenol; with sodium bicarbonate, with calcium and magnesium, with HEPES) per well. This process was performed a total of two times (i.e., 2 washes). • After the washing step, the HP D300 digital dispenser (Tecan) was used to inject increasing doses (12) of test compounds (ranging from 0-600 nM) to wells. Three to five minutes later, an EC75 of CP-55,940 (0.1 nM for GAPL-Gi2 assay; 100 nM for β-arrestin PM translocation biosensor (+GRK2)) was added to columns 2-12 of each 96-well plate.
(§7) BRET signals were determined by calculating the ratio of light emitted by GFP-acceptor (515 nm) over light emitted by luciferase-donor (400 nm). All BRET ratios were standardized using the equation below with pre-established BRET values for positive and negative controls. The standardized BRET ratio is referred to as universal BRET (uBRET).
(§8) Resulting dose-response curves were fitted using the four-parameter logistic non-linear regression model in GraphPad Prism 9.
In general terms: Bioluminescence resonance energy transfer reports proximity on the nanometre scale.

In assay [2] the target is T1, human CB1 receptor. The assay can be described thus: bioSensAll β-arrestin plasma membrane translocation BRET biosensor (+GRK2) assay (antagonism of CP-55,940). It is filed as cell-based. To be noted: HEK293 cells transfected with hCB1 and β-arrestin PM translocation biosensor (+GRK2), EC75 of CP-55,940 (100 nM), overnight incubation, read-out: CB1 wt βarr2 IC50. As for the experimental part:
as §1, §2
ii) The multimolecular β-arrestin membrane recruitment biosensors allow for real-time spatio-temporal monitoring of β-arrestin 1 and β-arrestin 2 following GPCR activation. Specifically, these β-arrestin sensors were designed to detect the recruitment of proteins to the plasma membrane (β-arrestin PM) with localization to compartment resulting in an increased BRET signal.
as §3, §4, §5, §6, §7, §8

The term IC50 denotes the point on the concentration scale where inhibition reaches its midpoint.

T1 sequence (P21554 whole entry): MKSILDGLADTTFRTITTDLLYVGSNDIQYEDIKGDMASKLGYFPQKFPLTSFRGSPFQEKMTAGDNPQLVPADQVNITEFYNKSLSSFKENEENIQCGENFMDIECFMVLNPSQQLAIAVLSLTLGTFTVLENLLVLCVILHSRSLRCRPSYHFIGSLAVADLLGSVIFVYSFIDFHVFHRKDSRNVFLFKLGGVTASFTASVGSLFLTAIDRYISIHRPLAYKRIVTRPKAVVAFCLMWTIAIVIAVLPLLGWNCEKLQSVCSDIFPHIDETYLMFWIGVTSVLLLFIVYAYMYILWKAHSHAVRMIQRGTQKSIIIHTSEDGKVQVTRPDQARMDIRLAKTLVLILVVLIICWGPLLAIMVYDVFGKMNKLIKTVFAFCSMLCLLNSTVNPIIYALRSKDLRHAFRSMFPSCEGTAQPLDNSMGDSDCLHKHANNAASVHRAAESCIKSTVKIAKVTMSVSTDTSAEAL

With `CC(C)OC1(C(N)=O)CCN(c2cc(OCC(C)(C)O)nc3c(-c4ccc(Cl)cc4)c(-c4ccc(C#N)nc4)nn23)CC1` [Compound 63], the half-maximal inhibitory concentration (IC50) at human CB1 receptor [1] turned out to be 0.9 nM; at human CB1 receptor [2], 1.62 nM.
For `COc1ccccc1-c1nn2c(-c3ccc(C(F)(F)F)cc3)cc(N3CCC[C@H]3CO)nc2c1-c1ccc(Cl)cc1` [Compound 6, [(2S)-1-[3-(4-chlorophenyl)-2-(2-methoxyphenyl)-7-[4-(trifluoromethyl)phenyl]pyrazolo[1,5-a]pyrimidin-5-yl]-pyrrolidin-2-yl]methanol], the IC50 amounted to 14.1 nM at human CB1 receptor [1] and 146 nM at human CB1 receptor [2].
Regarding `O[C@H]1CCN(c2cc(-c3ccc(C(F)(F)F)nc3)n3nc(-c4ccccc4Cl)c(-c4ccc(Cl)cc4)c3n2)C1` [Compound 72(S)], the IC50 at human CB1 receptor [1] was 1.64 nM; on human CB1 receptor [2], 5.25 nM.
As to `CC(C)OC1(C(N)=O)CCN(c2cc(N3CCC[C@H]3CO)nc3c(-c4ccc(Cl)cc4)c(-c4ccccc4Cl)nn23)CC1` [Compound 58, 1-[2-(2-chlorophenyl)-3-(4-chlorophenyl)-5-[(2S)-2-(hydroxymethyl)pyrrolidin-1-yl]pyrazolo[1,5-a]pyrimidin-7-yl]-4-isopropoxy-piperidine-4-carboxamide], the IC50 on human CB1 receptor [1] turned out to be 0.99 nM; on human CB1 receptor [2] it was 2.2 nM.
Consider `CCNC(=O)CN(C)c1cc(N2CCC(C)(C(N)=O)CC2)n2nc(-c3ccccc3Cl)c(-c3ccc(Cl)cc3)c2n1` [Compound 26, 1-[2-(2-chlorophenyl)-3-(4-chlorophenyl)-5-[[2-(ethylamino)-2-oxo-ethyl]-methyl-amino]pyrazolo[1,5-a]pyrimidin-7-yl]-4-methyl-piperidine-4-carboxamide], for which the results for the IC50 on human CB1 receptor [1] and at human CB1 receptor [2] were 5.03 nM and 30.5 nM, respectively.
Regarding `CC1(C(N)=O)CCN(c2cc(N3CCC[C@H]3CO)nc3c(-c4ccc(Cl)cc4)c(-c4ccccc4Cl)nn23)CC1` [Compound 9, 1-[2-(2-chlorophenyl)-3-(4-chlorophenyl)-5-[(2S)-2-(hydroxymethyl)pyrrolidin-1-yl]pyrazolo[1,5-a]pyrimidin-7-yl]-4-methyl-piperidine-4-carboxamide], the IC50 at human CB1 receptor [1] is 0.351 nM; on human CB1 receptor [2], 1.84 nM.
For `C[C@@H](CO)Oc1cc(-c2ccc(C(F)(F)F)nc2)n2nc(-c3ccccc3Cl)c(-c3ccc(Cl)cc3)c2n1` [Compound 71(S)], the half-maximal inhibitory concentration (IC50) on human CB1 receptor [1] is 1.37 nM; on human CB1 receptor [2] it was 4.07 nM.
For the molecule `CC(C)(O)COc1cc(N2CCN(S(=O)(=O)C(F)(F)F)CC2)n2nc(-c3ccccc3Cl)c(-c3ccc(Cl)cc3)c2n1` [Compound 15, 1-[2-(2-chlorophenyl)-3-(4-chlorophenyl)-7-[4-(trifluoromethylsulfonyl)piperazin-1-yl]pyrazolo[1,5-a]pyrimidin-5-yl]oxy-2-methyl-propan-2-ol], the IC50 at human CB1 receptor [1] is 3.97 nM; on human CB1 receptor [2], 9.55 nM.
Take `CN(CCC(N)=O)c1cc(N2CCC(C)(C(N)=O)CC2)n2nc(-c3ccccc3Cl)c(-c3ccc(Cl)cc3)c2n1` [Compound 22, 1-[5-[(3-amino-3-oxo-propyl)-methyl-amino]-2-(2-chlorophenyl)-3-(4-chlorophenyl)pyrazolo[1,5-a]pyrimidin-7-yl]-4-methyl-piperidine-4-carboxamide]: the IC50 on human CB1 receptor [1] was 0.99 nM; on human CB1 receptor [2] it was 9.15 nM.
In the same order, the values of `CNC(=O)CCN(C)c1cc(N2CCC[C@@H](C(N)=O)C2)n2nc(-c3ccccc3Cl)c(-c3ccc(Cl)cc3)c2n1` [Compound 41, (3R)-1-[2-(2-chlorophenyl)-3-(4-chlorophenyl)-5-[methyl-[3-(methylamino)-3-oxo-propyl]amino]pyrazolo[1,5-a]pyrimidin-7-yl]piperidine-3-carboxamide] are 93 nM and 161 nM.
In the same order, the values of `CC(C)(O)CNc1cc(N2CCC(C)(C(N)=O)CC2)n2nc(-c3ccccc3Cl)c(-c3ccc(Cl)cc3)c2n1` [Compound 49, 1-[2-(2-chlorophenyl)-3-(4-chlorophenyl)-5-[(2-hydroxy-2-methyl-propyl)amino]pyrazolo[1,5-a]pyrimidin-7-yl]-4-methyl-piperidine-4-carboxamide] are 9.13 nM and 25.4 nM.
In the case of `CC(C)(O)COc1cc(N2CC(C)(C(N)=O)C2)n2nc(-c3ccc(C#N)nc3)c(-c3ccc(Cl)cc3)c2n1` [Compound 60, 1-[3-(4-chlorophenyl)-2-(6-cyano-3-pyridyl)-5-(2-hydroxy-2-methyl-propoxy)pyrazolo[1,5-a]pyrimidin-7-yl]-3-methyl-azetidine-3-carboxamide], the IC50 is 1.52 nM at human CB1 receptor [1] and 5.02 nM at human CB1 receptor [2].
Take `Cc1ccc(-c2cc(N3CCC[C@H]3CO)nc3c(-c4ccc(Cl)cc4)c(-c4ccccc4Cl)nn23)cn1` [Compound 56, [(2S)-1-[2-(2-chlorophenyl)-3-(4-chlorophenyl)-7-(6-methyl-3-pyridyl)pyrazolo[1,5-a]pyrimidin-5-yl]pyrrolidin-2-yl]methanol]: the IC50 turned out to be 2.69 nM on human CB1 receptor [1] and 5.8 nM on human CB1 receptor [2].
Turning to `CC(C)(O)COc1cc(N2CC(C(N)=O)C2)n2nc(-c3ccc(C#N)nc3)c(-c3ccc(Cl)cc3)c2n1` [Compound 59, 1-[3-(4-chlorophenyl)-2-(6-cyano-3-pyridyl)-5-(2-hydroxy-2-methyl-propoxy)pyrazolo [1,5-a]pyrimidin-7-yl]azetidine-3-carboxamide], the IC50 at human CB1 receptor [1] is 6.21 nM; at human CB1 receptor [2], 21.8 nM.
For `CCOC1(C(N)=O)CCN(c2cc(OCC(C)(C)O)nc3c(-c4ccc(Cl)cc4)c(-c4ccc(C#N)nc4)nn23)CC1` [Compound 55, 1-[3-(4-chlorophenyl)-2-(6-cyano-3-pyridyl)-5-(2-hydroxy-2-methyl-propoxy)pyrazolo[1,5-a]pyrimidin-7-yl]-4-ethoxy-piperidine-4-carboxamide], the 50% inhibitory concentration (IC50) on human CB1 receptor [1] came out at 1.25 nM; at human CB1 receptor [2], 3.22 nM.
On to `CCOC1(C(N)=O)CCN(c2cc(N(C)CCO)nc3c(-c4ccc(Cl)cc4)c(-c4ccccc4Cl)nn23)CC1` [Compound 43, 1-[2-(2-chlorophenyl)-3-(4-chlorophenyl)-5-[2-hydroxyethyl(methyl)amino]pyrazolo[1,5-a]pyrimidin-7-yl]-4-ethoxy-piperidine-4-carboxamide], for which the IC50 amounted to 0.97 nM at human CB1 receptor [1] and 2.75 nM on human CB1 receptor [2].
Take `CN(CCOCCO)c1cc(N2CCC(C)(C(N)=O)CC2)n2nc(-c3ccccc3Cl)c(-c3ccc(Cl)cc3)c2n1` [Compound 66, 1-[2-(2-chlorophenyl)-3-(4-chlorophenyl)-5-[2-(2-hydroxyethoxy)ethyl-methyl-amino]pyrazolo[1,5-a]pyrimidin-7-yl]-4-methyl-piperidine-4-carboxamide]: the IC50 was 7.3 nM at human CB1 receptor [1] and 47.3 nM at human CB1 receptor [2].
For `COc1ccc(-c2cc(N3CCC[C@H]3CO)nc3c(-c4ccc(Cl)cc4)c(-c4ccccc4Cl)nn23)cc1` [Compound 5, [(2S)-1-[2-(2-chlorophenyl)-3-(4-chlorophenyl)-7-(4-methoxyphenyl)pyrazolo-[1,5-a]pyrimidin-5-yl]pyrrolidin-2-yl]methanol], the 50% inhibitory concentration (IC50) was found to be 3.69 nM on human CB1 receptor [1] and 8.6 nM at human CB1 receptor [2].
